Active and inactive are the calls of the source. The calls are words filed in the database; no cut-off is given here.
Experiments:
[1] = test system: Human immunodeficiency virus 1; assay: Antiviral activity against HIV1 3B infected in human TZM-bl cells assessed as reduction in viral entry by measuring Tat protein level at 1500 nM measured after 3 days in presence of IT1T and morphine by luciferase-based assay; assay type: functional, organism-based; details: time 3.0 day
[2] = biological target: T1, C-X-C chemokine receptor type 4 (Homo sapiens, UniProt P61073); assay: Displacement of [125I]SDF-1alpha from CXCR4 in human Chem-1 cells measured after 90 mins; assay type: cell-based
T1 sequence (P61073 whole entry): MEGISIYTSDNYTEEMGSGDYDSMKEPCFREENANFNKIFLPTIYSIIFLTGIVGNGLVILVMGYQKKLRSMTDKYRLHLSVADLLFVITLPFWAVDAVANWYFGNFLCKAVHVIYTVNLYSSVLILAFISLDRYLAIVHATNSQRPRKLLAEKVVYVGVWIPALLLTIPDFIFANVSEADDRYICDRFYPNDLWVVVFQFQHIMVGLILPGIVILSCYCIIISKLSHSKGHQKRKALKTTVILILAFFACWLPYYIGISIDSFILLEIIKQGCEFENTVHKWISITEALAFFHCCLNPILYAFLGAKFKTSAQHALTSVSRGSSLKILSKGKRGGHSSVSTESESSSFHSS

[3] = biological target: T1, C-X-C chemokine receptor type 4; assay: Antagonist activity at CXCR4 (unknown origin) expressed in CHO cells assessed as reduction in SDF1-induced intracellular calcium mobilization incubated for 15 mins followed by SDF1 addition by Fluo-AM dye based fluorescence assay; assay type: functional, cell-based
[4] = Therapeutic index, ratio of TC50 for human GHOST CXCR4 cells assessed as reduction in cell viability incubated for 4 hrs by XTT assay to EC50 for HIV1 3B reverse transcriptase infected in human GHOST CXCR4 cells assessed as reduction in viral replication incubated for 60 to 90 mins in presence of DTT and TTP by liquid scintillation counter; assay type: toxicity, cell-based; details: read-out: TI
[5] = biological target: T2, Mu-type opioid receptor (Homo sapiens, UniProt P35372); assay: Agonist activity at mu opioid receptor (unknown origin) assessed as maximum efficacy by [35S]-GTPgammaS binding assay relative to DAMGO; assay type: functional; details: filed as agonist
T2 sequence (P35372 whole entry): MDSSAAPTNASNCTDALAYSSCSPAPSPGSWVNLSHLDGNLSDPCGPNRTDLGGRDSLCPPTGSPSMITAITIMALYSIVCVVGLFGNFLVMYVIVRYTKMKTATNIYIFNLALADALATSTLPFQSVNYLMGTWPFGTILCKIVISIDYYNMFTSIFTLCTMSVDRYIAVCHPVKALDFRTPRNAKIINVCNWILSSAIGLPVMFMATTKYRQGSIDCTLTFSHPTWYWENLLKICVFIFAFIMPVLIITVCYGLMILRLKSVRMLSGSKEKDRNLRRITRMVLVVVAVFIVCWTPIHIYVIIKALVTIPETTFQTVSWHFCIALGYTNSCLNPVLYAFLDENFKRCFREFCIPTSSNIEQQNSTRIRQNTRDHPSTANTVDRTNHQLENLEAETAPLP

[6] = biological target: T2, Mu-type opioid receptor; assay: Antagonist activity at human mu opioid receptor expressed in CHO cells co- expressing Gqi5 assessed as decrease in DAMGO-induced intracellular calcium mobilization incubated for 15 mins followed by DAMGO addition by Fluo-AM dye based fluorescence assay; assay type: functional, cell-based
[7] = biological target: Mu-type opioid receptor (Mus musculus, UniProt P42866); assay: Displacement of [3H]-NLX from mouse mu opioid receptor expressed in CHO cells measured after 1.5 hrs by competitive-binding assay; assay type: cell-based
Mu-type opioid receptor (Mus musculus, UniProt P42866), sequence (P42866 whole entry): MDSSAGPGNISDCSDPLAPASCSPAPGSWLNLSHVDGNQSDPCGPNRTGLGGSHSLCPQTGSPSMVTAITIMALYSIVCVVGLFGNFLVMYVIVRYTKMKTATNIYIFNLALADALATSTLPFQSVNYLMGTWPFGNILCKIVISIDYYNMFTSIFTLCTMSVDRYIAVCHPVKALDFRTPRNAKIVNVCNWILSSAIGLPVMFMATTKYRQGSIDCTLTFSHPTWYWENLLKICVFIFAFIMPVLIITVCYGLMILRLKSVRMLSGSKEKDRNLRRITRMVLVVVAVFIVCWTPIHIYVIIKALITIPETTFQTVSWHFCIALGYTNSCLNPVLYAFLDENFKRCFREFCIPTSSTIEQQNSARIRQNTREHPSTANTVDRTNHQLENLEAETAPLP

[8] = biological target: T2, Mu-type opioid receptor; assay: Agonist activity at mu opioid receptor (unknown origin) by [35S]-GTPgammaS binding assay; assay type: functional
[9] = test system: Human immunodeficiency virus 1; assay: Antiviral activity against HIV1 3B infected in human TZM-bl cells assessed as reduction in viral entry by measuring Tat protein level at 60 nM measured after 3 days by luciferase-based assay; assay type: functional, organism-based; details: time 3.0 day
[10] = test system: Human immunodeficiency virus 1; assay: Antiviral activity against HIV1 3B infected in human TZM-bl cells assessed as reduction in viral entry by measuring Tat protein level at 60 nM measured after 3 days in presence of naltrexone and morphine by luciferase-based assay; assay type: functional, organism-based; details: time 3.0 day
[11] = Inhibition of HIV1 3B Tat infected in human TZM-bl cells assessed as reduction in viral entry in cells when pretreated for 1 hr followed by HIV1 3B infection and further incubated for 2 days followed by luciferase substrate addition by luminescence assay; assay type: cell-based; details: Human immunodeficiency virus 1, 3B
[12] = Cytotoxicity against human GHOST CXCR4 cells assessed as reduction in cell viability incubated for 4 hrs by XTT assay; assay type: cell-based; details: read-out: TC50
[13] = test system: Human immunodeficiency virus 1; assay: Antiviral activity against HIV1 3B infected in human TZM-bl cells assessed as reduction in viral entry by measuring Tat protein level at 60 nM measured after 3 days in presence of morphine by luciferase-based assay; assay type: functional, organism-based; details: time 3.0 day
[14] = test system: TZM-bl; assay: Inhibition of HIV1 3B Tat infected in human TZM-bl cells assessed as reduction in viral entry in cells at 30 uM when pretreated for 1 hr followed by HIV1 3B infection and further incubated for 2 days followed by luciferase substrate addition by luminescence assay relative to control; assay type: cell-based; details: Human immunodeficiency virus 1, time 2.0 day
[15] = test system: Human immunodeficiency virus 1; assay: Antiviral activity against HIV1 3B infected in human TZM-bl cells assessed as reduction in viral entry by measuring Tat protein level at 1000 nM measured after 3 days by luciferase-based assay; assay type: functional, organism-based; details: time 3.0 day
[16] = test system: Human immunodeficiency virus 1; assay: Antiviral activity against HIV1 3B infected in human TZM-bl cells assessed as reduction in viral entry by measuring Tat protein level at 1000 nM measured after 3 days in presence of morphine by luciferase-based assay; assay type: functional, organism-based; details: time 3.0 day

O=C1CC[C@@]2(O)[C@H]3Cc4ccc(O)c5c4[C@@]2(CCN3CC2CC2)[C@H]1O5
Activity [1]: Active

CNC(=O)COCC(=O)NCCCCNC(=O)COCC(=O)NC[C@H]1CC[C@H](/N=C(\NC2CCCCC2)SCC2=CSC3=NC(C)(C)CN23)CC1
IC50 [2]: 69000 nM
IC50 [3]: 53000 nM
selectivity ratio at 4 h [4]: 3.8

CC1(C)CN2C(CS/C(=N\[C@H]3CC[C@H](CNC(=O)COCC(=O)NCCCCCCNC(=O)COCC(=O)N[C@@H]4CC[C@@]5(O)[C@H]6Cc7ccc(O)c8c7[C@@]5(CCN6CC5CC5)[C@H]4O8)CC3)NC3CCCCC3)=CSC2=N1
IC50 [2]: 17.2 nM

CNC(=O)COCC(=O)NCCCCNC(=O)COCC(=O)N[C@@H]1CC[C@@]2(O)[C@H]3Cc4ccc(O)c5c4[C@@]2(CCN3CC2CC2)[C@H]1O5
Emax [5]: 12.3%
IC50 [6]: 254 nM
Ki [7]: 3.1 nM
EC50 [8]: 8.1 nM

CC1(C)CN2C(CS/C(=N\C3CCCCC3)NC3CCCCC3)=CSC2=N1
Activity [9]: Active
Activity [10]: Active
IC50 [11]: 164 nM
CC50 at 4 h [12]: > 1000 nM
Activity [13]: Active

CC1(C)CN2C(CS/C(N)=N\[C@H]3CC[C@H](CNC(=O)COCC(=O)NCCCCNC(=O)COCC(=O)N[C@@H]4CC[C@@]5(O)[C@H]6Cc7ccc(O)c8c7[C@@]5(CCN6CC5CC5)[C@H]4O8)CC3)=CSC2=N1
IC50 [2]: 3600 nM
IC50 [11]: 300 nM
inhibition [14]: 100%
CC50 at 4 h [12]: 153000 nM
Emax [5]: 9.5%
IC50 [6]: 30.5 nM
IC50 [3]: 8300 nM
Ki [7]: 3.8 nM
Activity [15]: Active
selectivity ratio at 4 h [4]: 160
EC50 [8]: 50 nM
Activity [16]: Active

CC1(C)CN2C(CS/C(=N\[C@H]3CC[C@H](CNC(=O)COCC(=O)NCCCCCCCCNC(=O)COCC(=O)N[C@@H]4CC[C@@]5(O)[C@H]6Cc7ccc(O)c8c7[C@@]5(CCN6CC5CC5)[C@H]4O8)CC3)NC3CCCCC3)=CSC2=N1
Ki [7]: 2.92 nM
